Among the data in patent US10899758B2, “Inhibitors of the menin-MLL interaction” (Vitae Pharmaceuticals, LLC, priority 2016, dated 2021) are IC50 and EC50 values, retold here.

In experiment [1] the target is T1, menin/MLL binding (biotinylated wild-type or mutated menin and MLL-AF9 fusion protein) (Homo sapiens, UniProt O00255).
T1 construct: biotinylated (1) wild-type menin or (2) mutated menin (described in Nature (2012) Vol. 482, pp. 542-548); fused on or other part: Biotin attached chemically (Sulfo-NHS-Biotin); no fused second protein is printed for menin
T1 sequence (O00255 1-459 limits assumed): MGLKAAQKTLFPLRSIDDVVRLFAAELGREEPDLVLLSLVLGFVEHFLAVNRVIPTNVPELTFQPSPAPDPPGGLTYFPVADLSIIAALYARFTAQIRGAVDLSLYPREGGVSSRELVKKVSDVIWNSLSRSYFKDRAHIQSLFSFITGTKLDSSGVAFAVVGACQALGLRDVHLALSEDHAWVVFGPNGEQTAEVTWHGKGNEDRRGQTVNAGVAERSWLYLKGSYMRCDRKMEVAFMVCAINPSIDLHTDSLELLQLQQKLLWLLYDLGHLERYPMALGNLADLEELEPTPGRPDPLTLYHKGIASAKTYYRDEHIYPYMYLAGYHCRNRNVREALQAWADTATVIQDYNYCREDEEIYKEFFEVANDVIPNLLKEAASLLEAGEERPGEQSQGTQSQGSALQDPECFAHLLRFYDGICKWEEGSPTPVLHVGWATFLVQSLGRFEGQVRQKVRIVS
Nature of the experiment: Assay 1 (Binding Assay): AlphaLISA menin/MLL binding. Particulars: 5 nM biotinylated menin, MLL-AF9-FLAG lysate. The gist of the method: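 Biotinylated E. coli-expressed menin (wild-type or mutant), 5 nM, incubated 30 min RT with compound and HEK293 lysate of MLL1-1,396–AF9-FLAG in pH 7.4 Tris buffer, 5% DMSO, 1 mM DTT. Anti-FLAG acceptor and streptavidin donor beads added, 60 min RT, AlphaLISA signal read. IC50 from four-parameter fit of % inhibition.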

The subject of experiment [2] is human acute monocytic leukemia cell line MV-4-11. The experiment is described as follows: Assay 2 (Cell Proliferation Assay), ATP quantitation (CellTiter-Glo). Particulars: MV-4-11 cells, read-out: Assay 2 (EC50, inhibition of cell proliferation). The format is cell-based. The gist of the method: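 Cells (1.67×10^4/well, 10% FBS medium) incubated ±compound 72 h at 37 °C, 5% CO2; HL-60 served as toxicity control. ATP read by CellTiter-Glo luminescence; % inhibition scaled between DMSO and a potent menin inhibitor at ≥100×LD50.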
In general terms: In ATP-based viability assays light output follows the ATP content of the culture.

Molecules are shown by their SMILES. Like-named read-outs stand apart in the source and are kept apart here.

Broadly, the IC50 is the concentration that inhibits the measured activity by half. A higher IC50 goes with weaker potency in that assay. The compound `Cc1c(CN2CCC(n3c(=O)n(-c4ccc(F)cc4C(=O)N(C)C(C)C)c4cnccc43)CC2)ccc2[nH]c(C#N)cc12` [Example 82, 2-(1-(1-((2-cyano-4-methyl-1H-indol-5-yl)methyl)piperidin-4-yl)-2-oxo-1,2-dihydro-3H-imidazo[4,5-c]pyridin-3-yl)-5-fluoro-N-isopropyl-N-methylbenzamide] displayed an IC50 in experiment [1] of under 100 nM. Also, the EC50 in experiment [2] (Homo sapiens, MV4-11, 72 h) was under 100 nM.

In experiment [1], `CC(C)N(C)C(=O)c1cc(F)ccc1-n1cc(C2CCN(Cc3ccc(NS(C)(=O)=O)cc3)CC2)c2ccncc21` [Example 23, 5-fluoro-N-isopropyl-N-methyl-2-(3-(1-(4-(methylsulfonamido)benzyl)piperidin-4-yl)-1H-pyrrolo[2,3-c]pyridin-1-yl)benzamide] yielded an IC50 of under 100 nM. Moreover, the EC50 in experiment [2] (Homo sapiens, MV4-11, 72 h) is at least 1000 nM.

As to `CC(C)N(C)C(=O)c1cc(F)ccc1-n1cc(C2CCCN(Cc3ccc4[nH]c(=O)[nH]c4c3)C2)c2ccncc21` (single isomer, unassigned) [Example 43A, 5-fluoro-N-isopropyl-N-methyl-2-(3-(1-((2-oxo-2,3-dihydro-1H-benzo[d]imidazol-5-yl)methyl)piperidin-3-yl)-1H-pyrrolo[2,3-c]pyridin-1-yl)benzamide], the IC50 in experiment [1] is under 100 nM. In experiment [2] (Homo sapiens, MV4-11, 72 h), the EC50 was under 100 nM.

Compound `CCN(C(=O)c1cc(F)ccc1-n1cc([C@H]2CCCN(Cc3ccc4c(c3)[nH]c(=O)n4CCO)C2)c2ccncc21)C(C)C` [Example 49B, (R)-N-ethyl-5-fluoro-2-(3-(1-((1-(2-hydroxyethyl)-2-oxo-2,3-dihydro-1H-benzo[d]imidazol-5-yl)methyl)piperidin-3-yl)-1H-pyrrolo[2,3-c]pyridin-1-yl)-N-isopropylbenzamide] returned a concentration for half-maximal inhibition (IC50) in experiment [1] of under 100 nM. Besides, the EC50 in experiment [2] (Homo sapiens, MV4-11, 72 h) was under 100 nM.

`CC(C)N(C)C(=O)c1cc(F)ccc1-n1cc(C2CCC(NCc3ccc4[nH]c(=O)[nH]c4c3)CC2)c2ccncc21` (single isomer, unassigned) [Example 60, 5-fluoro-N-isopropyl-N-methyl-2-(3-(4-(((2-oxo-2,3-dihydro-1H-benzo[d]imidazol-5-yl)methyl)amino)cyclohexyl)-1H-pyrrolo[2,3-c]pyridin-1-yl)benzamide]: the IC50 in experiment [1] is under 100 nM. In addition, the EC50 in experiment [2] (72 h) is 100 to 1000 nM.

The compound `CS(=O)(=O)N[C@H]1CC[C@H](CCN2CCC(c3cn(-c4ccc(F)cc4OCC4CC4)c4cnccc34)CC2)CC1` [Example 34, N-(trans-4-(2-(4-(1-(2-(cyclopropylmethoxy)-4-fluorophenyl)-1H-pyrrolo[2,3-c]pyridin-3-yl)piperidin-1-yl)ethyl)cyclohexyl)methanesulfonamide] gave a half-inhibitory concentration (IC50) in experiment [1] of under 100 nM. In addition, the EC50 in experiment [2] (Homo sapiens, MV4-11, 72 h) lay in the range of 100 to 1000 nM.

As to `CC(C)N(C)C(=O)c1cc(F)ccc1-n1cc(C2CCN(CC[C@H]3CC[C@H](NS(C)(=O)=O)CC3)CC2)c2ccncc21` [Example 19, 5-fluoro-N-isopropyl-N-methyl-2-(3-(1-(2-(trans-4-(methylsulfonamido)cyclohexyl)ethyl)piperidin-4-yl)-1H-pyrrolo[2,3-c]pyridin-1-yl)benzamide], the IC50 in experiment [1] was under 100 nM. In addition, the EC50 in experiment [2] (Homo sapiens, MV4-11, 72 h) was under 100 nM.

Consider `Cc1c(CN2CCC(n3c(=O)n(-c4ccc(F)cc4)c4cnccc43)CC2)ccc2[nH]c(C#N)cc12` [Example 80, 5-((4-(3-(4-fluorophenyl)-2-oxo-2,3-dihydro-1H-imidazo[4,5-c]pyridin-1-yl)piperidin-1-yl)methyl)-4-methyl-1H-indole-2-carbonitrile], for which the concentration for half-maximal inhibition (IC50) in experiment [1] was under 100 nM. Moreover, in experiment [2] (Homo sapiens, MV4-11, 72 h), the EC50 is at least 1000 nM.

Turning to `CC(C)N(C)C(=O)c1cc(F)ccc1-n1cc([C@H]2CC[C@@H](N3CCCC(O)C3)CC2)c2ccncc21` (stereo partly drawn) [Example 113, 5-fluoro-2-(3-(cis-4-(3-hydroxypiperidin-1-yl)cyclohexyl)-1H-pyrrolo[2,3-c]pyridin-1-yl)-N-isopropyl-N-methylbenzamide], in experiment [1], the IC50 was under 100 nM. In experiment [2] (Homo sapiens, MV4-11, 72 h), the EC50 lay within 100 to 1000 nM.

Turning to `CC(C)N(C)C(=O)c1cc(F)ccc1-n1cc(C2CCN(CCC3CCOCC3)CC2)c2ccncc21` [Example 6, 5-fluoro-N-isopropyl-N-methyl-2-(3-(1-(2-(tetrahydro-2H-pyran-4-yl)ethyl)piperidin-4-yl)-1H-pyrrolo[2,3-c]pyridin-1-yl)benzamide], the concentration for half-maximal inhibition (IC50) in experiment [1] was under 100 nM. Besides, in experiment [2] (Homo sapiens, MV4-11, 72 h), the EC50 fell in the range of 100 to 1000 nM.
